Reference: patent publication US20260130933A1, “PHARMACEUTICAL COMPOSITION FOR PREVENTION OR TREATMENT OF NEPHROPATHY AND/OR DIABETES MELLITUS, COMPRISING ENAVOGLIFLOZIN” (DAEWOONG PHARMACEUTICAL CO., LTD., priority 2022, published 2026)

Assays:
[1] = Phase 2 clinical trial, blood glucose lowering vs placebo; format: in vivo, human; conditions: 0.1 mg, 0.3 mg and 0.5 mg groups
Pharmacokinetics (Tmax) = format: in vivo; conditions: blood, oral

Tmax (Pharmacokinetics (Tmax)): 1 to 2 h
SMILES: OC[C@H]1O[C@@H](c2cc(Cc3ccc(C4CC4)cc3)c(Cl)c3c2CCO3)[C@H](O)[C@@H](O)[C@@H]1O [Enavogliflozin, (2S,3R,4R,5S,6R)-2-(7-chloro-6 (4-cyclopropylbenzyl)-2,3-dihydrobenzofuran-4-yl)-6-(hydroxymethyl)tetrahydro-2H-pyran-3,4,5-triol]
Blood glucose-lowering effect compared to a placebo [1]: statistically significant blood glucose-lowering effect
